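A five-concentration, 48-hour dose response in 96-well plates underlies each endpoint, interpolated linearly between surrounding concentrations. GI50 marks 50% less growth.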 Active and inactive are the calls of the source. Cut-off read from the data, not from the text of the source: active = GI50 up to about 1.1 µM and inactive = higher.

Among the test systems are EKVX; HCC 2998; HCT-116; HCT-15; IGROV-1; K562; MCF7; MDA-MB-231; MDA-MB-435; MOLT-4; NCI-H226; OVCAR-4; OVCAR-8; SF-539; SNB-75; T47D; UACC-257; UACC-62.
Holding throughout (assay): DTP human tumour cell line panel, 48 h

For orientation: GI50 means the concentration giving 50% growth inhibition. For `COc1ccc(/C=C2\CN(C)C/C(=C\c3ccc(OC)c(OC)c3OC)C2=O)c(OC)c1OC`, the GI50 in the assay on EKVX is 1.67 µM (inactive); in the assay on HCC 2998 it was 0.171 µM (active); with HCT-116 it was 0.111 µM (active); in the assay on HCT-15, 0.369 µM; in the assay on IGROV-1 it was 0.311 µM (active); in the assay on K562, 0.0192 µM (active). For the same compound, the GI50 in the assay with MCF7 is 0.0507 µM (active); in the assay on MDA-MB-231, 0.282 µM (active); in the assay on MDA-MB-435, 0.0199 µM (active); in the assay on MOLT-4, 0.0685 µM (active); in the assay on NCI-H226, 0.394 µM (active); in the assay on OVCAR-4, 0.253 µM (active). For the same compound, the GI50 with OVCAR-8 was 0.07 µM (active); in the assay on SF-539 it was 0.102 µM (active); in the assay on SNB-75, 0.973 µM (active); in the assay with T47D, 1.05 µM (active); in the assay on UACC-257, 0.249 µM (active); in the assay with UACC-62, 0.2 µM (active).
Consider `NS(=O)(=O)c1nn2c(Br)c(-c3ccccc3)nc2s1`, for which the GI50 with EKVX is 15.8 µM (inactive); with HCC 2998, 4.92 µM (inactive); with HCT-116, 2.04 µM (inactive); in the assay on HCT-15, 2.86 µM; with IGROV-1, 10.4 µM (inactive); in the assay with K562, 2.2 µM (inactive). For the same compound, the GI50 in the assay with MCF7 was 3.95 µM (inactive); with MDA-MB-231, 4.47 µM (inactive); with MDA-MB-435, 4.45 µM (inactive); with MOLT-4, 1.61 µM (inactive); in the assay on NCI-H226 it was 1.91 µM (inactive); in the assay with OVCAR-4, 10.6 µM (inactive). In addition, the GI50 is 2.38 µM (inactive) with OVCAR-8; 1.96 µM (inactive) with SF-539; 5.18 µM (inactive) in the assay on SNB-75; 3.66 µM (inactive) in the assay with T47D; 5.16 µM (inactive) with UACC-257; 4.23 µM (inactive) in the assay on UACC-62.
As for `CN1C[C@@H]2CCCN2P1Oc1cccc2cccnc12` (stereo partly drawn), the GI50 was 29 µM (inactive) in the assay with EKVX; 47.3 µM (inactive) with HCC 2998; 8.69 µM (inactive) in the assay with HCT-116; 16.6 µM with HCT-15; 32.9 µM (inactive) in the assay with IGROV-1; 9.42 µM (inactive) in the assay on K562. The GI50 in the assay with MCF7 was 12 µM (inactive); in the assay on MDA-MB-231 it was 42.6 µM (inactive); in the assay on MDA-MB-435, 45.6 µM (inactive); in the assay with MOLT-4, 6.76 µM (inactive); in the assay on NCI-H226, 80.9 µM (inactive); with OVCAR-4, 32.8 µM (inactive). In addition, the GI50 with OVCAR-8 is 42.6 µM (inactive); in the assay with SF-539, 44.9 µM (inactive); in the assay on SNB-75 it was > 100 µM (inactive); with T47D it was 9.77 µM (inactive); in the assay with UACC-257 it was 29.4 µM (inactive); with UACC-62 it was 39.3 µM (inactive).
Regarding `CC(C)(C)Cc1cc(O)ccc1O`, the GI50 with EKVX is 48.9 µM (inactive); with HCC 2998, 51.9 µM (inactive); in the assay on HCT-116, 61.1 µM (inactive); in the assay with HCT-15, 34.7 µM; in the assay with IGROV-1, > 100 µM (inactive); in the assay on K562 it was 48.3 µM (inactive). The GI50 with MCF7 was 74.8 µM (inactive); with MDA-MB-231, 42.2 µM (inactive); in the assay on MDA-MB-435, 39.1 µM (inactive); in the assay on MOLT-4, 36.4 µM (inactive); in the assay on NCI-H226, > 100 µM (inactive); with OVCAR-4 it was > 100 µM (inactive). Further, the GI50 in the assay with OVCAR-8 was 53 µM (inactive); in the assay on SF-539, 70.8 µM (inactive); in the assay with SNB-75, 58.9 µM (inactive); in the assay on T47D, 60.5 µM (inactive); with UACC-257, 33.3 µM (inactive); in the assay with UACC-62, > 100 µM (inactive).
For the compound `O=C(Cc1cc(=O)oc2cc(O)ccc12)N/N=C/c1ccc(N(CCCl)CCCl)cc1`, the GI50 was 17.5 µM (inactive) with EKVX; > 100 µM (inactive) in the assay on HCC 2998; 16.6 µM (inactive) with HCT-116; more than 100 µM in the assay on HCT-15; 18.8 µM (inactive) in the assay with IGROV-1; 23.5 µM (inactive) with K562. The GI50 in the assay with MCF7 was 14.8 µM (inactive); in the assay on MDA-MB-231 it was 18.5 µM (inactive); in the assay on MDA-MB-435, 19.8 µM (inactive); in the assay with MOLT-4 it was 15.3 µM (inactive); in the assay with NCI-H226, 17.7 µM (inactive); with OVCAR-4, 23.8 µM (inactive). Besides, the GI50 in the assay with OVCAR-8 is 15.1 µM (inactive); with SF-539, 18 µM (inactive); in the assay on SNB-75, 21.7 µM (inactive); in the assay on T47D, > 10 µM (inactive); with UACC-257, 22.1 µM (inactive); in the assay on UACC-62, 6.19 µM (inactive).
With `CN(C)CCc1c2c(nc3ccccc13)C(=O)c1cccnc1C2=O`, the GI50 with EKVX is 1.55 µM (inactive); in the assay on HCC 2998 it was 1.35 µM (inactive); with HCT-116, 0.0838 µM (active); with HCT-15 it was 0.0348 µM; in the assay on IGROV-1, 0.542 µM (active); with K562, 0.154 µM (active). Moreover, the concentration for 50% growth inhibition (GI50) in the assay on MCF7 is 0.122 µM (active); in the assay on MDA-MB-231, 0.385 µM (active); in the assay with MDA-MB-435 it was 0.331 µM (active); in the assay on MOLT-4, 2.57 µM (inactive); in the assay with NCI-H226, 0.0902 µM (active); in the assay with OVCAR-4, 0.31 µM (active). In addition, the concentration for 50% growth inhibition (GI50) in the assay on OVCAR-8 was 0.184 µM (active); in the assay on SF-539, 0.168 µM (active); with SNB-75, 0.42 µM (active); in the assay with T47D it was 1.83 µM (inactive); in the assay with UACC-257 it was 0.214 µM (active); in the assay with UACC-62, 0.175 µM (active).
Consider `CC(=O)CCNc1ccc(-c2cc(-c3ccc(N(C)C)cc3)nc3ccc4ccccc4c23)cc1`, for which the GI50 was > 51.5 µM (inactive) in the assay with EKVX; > 100 µM (inactive) with HCC 2998; 18.5 µM (inactive) with HCT-116; 49.7 µM in the assay on HCT-15; 14.5 µM (inactive) with IGROV-1; 19.6 µM (inactive) in the assay with K562. Besides, the GI50 in the assay on MCF7 is 27.1 µM (inactive); with MDA-MB-231, > 75 µM (inactive); in the assay with MDA-MB-435, > 60.7 µM (inactive); in the assay with MOLT-4, 6.76 µM (inactive); in the assay with NCI-H226 it was > 41.5 µM (inactive); with OVCAR-4, 6.52 µM (inactive). Further, the GI50 in the assay on OVCAR-8 is > 100 µM (inactive); in the assay on SF-539, > 53.7 µM (inactive); in the assay with SNB-75 it was 9.84 µM (inactive); in the assay with T47D, 9.48 µM (inactive); in the assay with UACC-257 it was > 100 µM (inactive); in the assay with UACC-62, > 60.8 µM (inactive).
Turning to `Nc1ccc2nc(-c3ccccn3)c(-c3ccccn3)nc2c1`, the GI50 in the assay on EKVX is > 100 µM (inactive); in the assay with HCC 2998, > 100 µM (inactive); in the assay on HCT-116 it was > 100 µM (inactive); with HCT-15, more than 100 µM; in the assay on IGROV-1 it was > 100 µM (inactive); in the assay on K562, > 100 µM (inactive). The GI50 in the assay with MCF7, with MDA-MB-231, with MDA-MB-435, in the assay on MOLT-4, in the assay with NCI-H226 and in the assay on OVCAR-4 was > 100 µM (inactive) each time. Also, the GI50 in the assay with OVCAR-8, in the assay on SF-539, in the assay with SNB-75, with T47D, with UACC-257 and with UACC-62 was > 100 µM (inactive) each time.
`COC12CCCN1c1ccn(Cc3ccccc3)c(=O)c1C2=O` (stereo not drawn): the GI50 in the assay with EKVX is > 100 µM (inactive); with HCC 2998 it was > 100 µM (inactive); with HCT-116 it was > 100 µM (inactive); in the assay on HCT-15, more than 100 µM; with IGROV-1, > 100 µM (inactive); in the assay with K562, > 100 µM (inactive). For the same compound, the GI50 with MCF7 was > 100 µM (inactive); with MDA-MB-231 it was > 100 µM (inactive); in the assay with MDA-MB-435, > 100 µM (inactive); in the assay with MOLT-4 it was 28.7 µM (inactive); in the assay on NCI-H226, > 100 µM (inactive); in the assay with OVCAR-4, > 100 µM (inactive). In addition, the GI50 in the assay on OVCAR-8, in the assay with SF-539, in the assay with SNB-75, in the assay with T47D, with UACC-257 and in the assay with UACC-62 was > 100 µM (inactive) in each case.
With `COCCCN1C(=O)C2c3[nH]c4ccccc4c3C3CCC(C(C)(C)C)CC3C2C1=O` (stereo not drawn), the GI50 is 34.4 µM (inactive) in the assay with EKVX; 20.3 µM (inactive) in the assay with HCC 2998; 19.8 µM (inactive) in the assay on HCT-116; 19.8 µM in the assay with HCT-15; > 100 µM (inactive) with IGROV-1; > 10 µM (inactive) in the assay with K562. Moreover, the GI50 is 20.6 µM (inactive) in the assay on MCF7; 21.7 µM (inactive) in the assay on MDA-MB-231; 29.7 µM (inactive) in the assay with MDA-MB-435; 24.7 µM (inactive) with MOLT-4; 25.4 µM (inactive) in the assay with NCI-H226; 31.5 µM (inactive) in the assay with OVCAR-4. Besides, the GI50 in the assay on OVCAR-8 was 35.5 µM (inactive); in the assay on SF-539, 27.4 µM (inactive); in the assay with SNB-75, 47.6 µM (inactive); with T47D it was 48.4 µM (inactive); in the assay on UACC-257, 27.7 µM (inactive); in the assay on UACC-62, > 10 µM (inactive).
For `Cc1ccc2c(c1C)C(=O)/C(=C/c1cccc(C)c1C(=O)O)C2`, the GI50 in the assay with EKVX was > 100 µM (inactive); with HCC 2998, 51.5 µM (inactive); in the assay on HCT-116, 48.4 µM (inactive); in the assay with HCT-15, 51.3 µM; with IGROV-1, > 86.7 µM (inactive); in the assay with K562, 72.8 µM (inactive). Besides, the GI50 in the assay with MCF7 was 25.9 µM (inactive); in the assay with MDA-MB-231, > 62.7 µM (inactive); in the assay with MDA-MB-435 it was 52.7 µM (inactive); with MOLT-4, 53.2 µM (inactive); with NCI-H226 it was 43.1 µM (inactive); in the assay with OVCAR-4, > 79.6 µM (inactive). Further, the GI50 in the assay with OVCAR-8 was 86.5 µM (inactive); in the assay with SF-539, 69.2 µM (inactive); in the assay on SNB-75, 69.3 µM (inactive); with T47D, > 100 µM (inactive); with UACC-257, 57.9 µM (inactive); with UACC-62 it was 56 µM (inactive).

The values above are taken from ChEMBL document CHEMBL1201862, “PubChem BioAssay data set” (2004).
